Source: patent US5614533A, “Substituted pipecolinic acid derivatives as HIV protease inhibitors” (Bio-Mega/Boehringer Ingelheim Research, Inc., priority 1994, dated 1997)

Tests used:
HIV protease = target: T1, HIV protease (Human immunodeficiency virus type 1 group M subtype B, UniProt P04585); test: Recombinant HIV Protease HPLC Assay; assay type: biochemical; details: 37°, 30 min, pH 5.5
T1 construct: HIV protease was expressed in E. coli; made in house; host or cells: E. coli (plasmid pBRT1 prt+)
Text: The procedure is based on the capacity of the test compound to inhibit enzymatic cleavage by HIV protease of a decapeptide (the substrate) having an amino acid sequence which includes a known HIV protease cleavage site of a HIV polyprotein; see H. G. Krausslich et al., Proc. Natl. Acad. Sci. USA, 86, 807 (1989). Details of this assay together with the results obtained for exemplified compounds of formula 1 are described in the examples hereinafter.
Recombinant HIV Protease HPLC Assay:
Enzyme: HIV protease was expressed in E. coli {construct pBRT1 prt^+, see W. G. Farmerie et al., Science, 236, 305 (1987)}, according to the following protocol:
E. coli cells containing the pBRT1 prt^+ plasmid were used to inoculate a seed culture media composed of Luria-Bertani Broth containing 100 μg/mL of ampicillin. Flasks were incubated at 37° under agitation for 17 h. Production flasks containing sterile M9 broth, supplemented with 100 μg/mL of ampicillin, were inoculated at a level of 1% (v/v) using the seed culture described above. Total volume in each production flask was 500 mL in a 2 L Erlenmeyer flask. Flasks were incubated at 37° under agitation until a cell concentration corresponding to an optical density ([…]) of 0.6 was reached (no dilution). This time span was routinely 3-4 h. Flasks were then supplemented with 5 mM isopropylthiogalactoside (IPTG, Research Organics, Cleveland, Ohio, USA) and incubation was continued until the cell concentration reached an optical density of 0.2 at 16-fold dilution. Flasks were then supplemented with 1 mM phenylmethylsulfonyl fluoride (PMSF) and rapidly chilled to 4°. The bacterial cells were recovered by centrifugation at 4°. The wet pellet was stored at -70°.
All steps below were performed at 4° unless otherwise indicated. Thawed cells were mixed with buffer A {50 mM tris(hydroxymethyl)[…] HCl (Tris-HCl, pH 7.4); 0.6 mM ethylenediaminetetraacetic acid (EDTA); 0.375M NaCl, 0.2% Nonidet P-40® (BDH Chemicals Ltd., Poole, UK); 1 mM PMSF}, at a ratio of one part cells to nine parts buffer A. Diatomaceous earth (Celite 545®, John Manville, Lompoc, Calif. USA) was added at a ratio of two parts to one part of wet cell weight. The resulting slurry was homogenized at high speed (ca. 20,000 rpm) on a Waring® industrial blender for 8×15 sec. pulses. Cell debris/Celite® was collected by centrifugation and the resulting pellet was extracted with 4.5 parts of buffer A to one part wet solids using the homogenization procedure described above. Supernatants from both homogenization steps were combined and soluble protein was precipitated by the addition of solid (NH4)2 SO4 to yield a final concentration of 75% saturation. This mixture was agitated for 60 min and the precipitate was recovered by centrifugation. The resulting pellet was suspended in buffer B {50 mM Tris-HCl, pH 8; 30 mM NaCl; 1 mM DL-dithiothreitol (DTT); 1 mM EDTA; 1 mM PMSF; 10% glycerol}, and dialyzed for 18 h against the same buffer.
An aliquot of the dialyzed extract containing 150 mg of the protein was loaded onto a Sephadex A25® anion exchange column (Pharmacia, Uppsala, Sweden) with bed dimensions of 70 cm length and 2.5 cm diameter. The sample was eluted isocratically with buffer B at a linear flow rate of 10 cm/h. Fractions containing HIV protease activity (see below for assay description) were combined, and soluble protein was precipitated by the addition of saturated aqueous (NH4)2 SO4 to yield a total (NH4)2 SO4 concentration of 85% saturation. Precipitated protein was removed by centrifugation and the resulting pellet was dissolved in buffer C {50 mM 2-(4-morpholino)ethanesulfonic acid (MES), pH 5.5; 150 mM NaCl; 1 mM DTT; 1 mM EDTA; 10% glycerol}. This preparation was dialyzed for 18 h against buffer C, and then frozen at -70°. All crude extracts were purified by chromatography in aliquots containing 150 mg of protein in the same manner as described above. […]

[1] = test system: HIV (H9/HTLV-IIIB) in C8166 cells; test: plaque assay: inhibition of syncytia formation in HIV-infected C8166 cells; assay type: cell-based; details: Human immunodeficiency virus 1, IIIB, 72 h, 50% inhibition of syncytia formation
Text: Typical of such procedures are those described by S. Harada and N. Yamamoto, Jpn. J. Cancer Res. (Gann), 76, 432 (1985), and S. Harada et al., Science, 229, 563 (1985). An assay based on the latter procedures is described in the examples hereinafter.
The following protocol, used for screening antiviral effects of the compounds of formula 1, is adapted from a plaque assay utilizing HTLV-I transformed cells, previously reported by Harada et al., supra. HTLV-I transformed cells are used because of the rapidity with which HIV will replicate in the cells.
1. The test compound is dissolved in dimethylsulfoxide to a concentration of 5 mg/mL. The resultant solution can be stored at 4° until use.
2. The resultant solution is diluted in RPMI 1640 (Gibco Laboratories, St. Lawrence, Mass., USA) to four times (4×) the final concentration which is to be tested. Once diluted in RPMI 1640, the solution is used in the cell culture assay within 4 h.
3. The 4× solution (50 μL) is added to triplicate wells of a 96 well flat bottomed microtiter plate. RPMI (50 μL) also is added to control wells.
4. C8166 cells (5×10^4) in 50 μL of HEPES-buffered RPMI 1640 (pH=7.2), 10% heat inactivated fetal calf serum (FCS), […] gentamicin (complete media) are added to all wells.
5. Fifty times TCID50 of H9/HTLV-IIIB stock (stored in liquid nitrogen as cell culture supernatant in 50% FCS) in 100 μL of complete media is added to all wells. Infectious titer of virus stocks are as previously determined by end point dilution on C8166 cells. Titer of stocks are stable for 6-12 months when stored at -193°.
6. Microtiter plates are then placed on level shelves of a 37°, 5% CO2 humidified incubator for 72 h.
7. Plates are then removed and centers of syncytia are counted in each well by low power phase contrast light microscopy. […] Control wells should have between 25 and 75 centers of syncytia per well.
8. Percent inhibition of syncytia formation is calculated by the formula: [formula]
The concentration of the test compound which causes a 50% inhibition of syncytia formation, i.e. the EC50, is determined by using the technique of serial dilution of the working solution at step 3 and by using non-linear regression analysis (SAS® program) to graphically plot the observed percent inhibition of syncytia formation against the various concentrations of the test compound.

Row | Structure (SMILES) | IC50 (HIV protease; Table V) | EC50 ([1]; Table V) | IC50 (HIV protease; Table IV) | EC50 ([1]; Table IV)
1 | Cc1ccnc(S[C@@H]2CCN(C[C@@H](O)[C@H](Cc3ccccc3)NC(=O)[C@@H](NC(=O)c3ccc4ccccc4n3)C(C)C)[C@H](C(=O)NC(C)(C)C)C2)n1 [Table V, entry 23, N-tert-butyl-1-{2(R)-hydroxy-4-phenyl-3(S)-{{N-(2-quinolylinylcarbonyl)valyl}amino}butyl}-4(R)-{(4-methyl-2-pyrimidinyl)thio}piperidine-2(S)-carboxamide] | 2.8 nM | 16 nM |  | 
2 | CC(C)[C@H](NC(=O)c1ccc2ccccc2n1)C(=O)N[C@@H](Cc1ccccc1)[C@H](O)CN1CC[C@@H](Sc2ncccn2)C[C@H]1C(=O)NC(C)(C)C [Table V, entry 1, N-tert-butyl-1-{2(R)-hydroxy-4-phenyl-3(S)-{{N-(2-quinolylinylcarbonyl)valyl}amino}butyl}-4(R)-(2-pyrimidinylthio)piperidine-2-carboxamide] | 3.6 nM | 7 nM |  | 
3 | CC(C)(C)NC(=O)[C@@H]1C[C@H](Sc2ncccn2)CCN1C[C@@H](O)[C@H](Cc1ccccc1)NC(=O)OCc1ccccc1 [Table IV, entry 30, N-tert-butyl-1-{3(S)-(benzyloxycarbonylamino)-2(R)-hydroxy-4-phenylbutyl}-4(R)-(2-pyrimidinylthio)piperidine-2(S)-carboxamide] |  |  | 19 nM | 822 nM
4 | CC(C)[C@H](NC(=O)c1ccc2ccccc2n1)C(=O)N[C@@H](Cc1ccccc1)[C@H](O)CN1CC[C@@H](SCc2cccnc2)C[C@H]1C(=O)NC(C)(C)C [Table V, entry 8, N-tert-butyl-1-{2(S)(R)-hydroxy-4-phenyl-3(S)-{{N-(2-quinolylinylcarbonyl)valyl}amino}butyl}-4(R)-{(3-pyridinylmethyl)thio}piperidine-2-carboxamide] | 2.2 nM | 3 nM |  | 
5 | CC(C)[C@H](NC(=O)OCc1ccccc1)C(=O)N[C@@H](Cc1ccccc1)[C@H](O)CN1CC[C@@H](C2CCCCC2)C[C@H]1C(=O)NC(C)(C)C [Table IV, entry 19] |  |  | 8 nM | 200 nM
6 | CC(C)(C)NC(=O)[C@@H]1C[C@H](Sc2ccncc2)CCN1C[C@@H](O)[C@H](Cc1ccccc1)NC(=O)OCc1ccccc1 [Table IV, entry 29] |  |  | 8 nM | 140 nM
7 | CC(C)[C@H](NC(=O)c1ccc2ccccc2n1)C(=O)N[C@@H](Cc1ccccc1)[C@H](O)CN1CC[C@@H](Oc2ccccc2)C[C@H]1C(=O)NC(C)(C)C [Table V, entry 7, N-tert-butyl-1-{2(S)(R)-hydroxy-4-phenyl-3(S)-{{N-(2-quinolylinylcarbonyl)valyl}amino}butyl}-4(R)-phenoxypiperidine-2-carboxamide] | 3.4 nM | 14 nM |  | 
8 | CC(C)[C@H](NC(=O)c1ccc2ccccc2n1)C(=O)N[C@@H](Cc1ccccc1)[C@H](O)CN1CC[C@@H](Sc2ccncc2)C[C@H]1C(=O)NC(C)(C)C [Table V, entry 5, N-tert-butyl-1-{2(S)(R)-hydroxy-4-phenyl-3(S)-{{N-(2-quinolylinylcarbonyl)valyl}amino}butyl}-4(R)-(4-pyridinylthio)piperidine-2-carboxamide] | 1.5 nM | 3 nM |  | 
9 | CC(C)[C@H](NC(=O)c1ccc2ccccc2n1)C(=O)N[C@@H](Cc1ccccc1)[C@H](O)CN1CC[C@@H](S(=O)(=O)Cc2ccccn2)C[C@H]1C(=O)NC(C)(C)C [Table V, entry 17, N-tert-butyl-1-{2(S)(R)-hydroxy-4-phenyl-3(S)-{{N-(2-quinolylinylcarbonyl)valyl}amino}butyl}-4(R)-{(2-pyridinylmethyl)sulfonyl}piperidine-2-carboxamide] | 2.4 nM | 33 nM |  | 

Second part, the molecule after the results:

Row | IC50 (HIV protease; Table V) | EC50 ([1]; Table V) | IC50 (HIV protease; Table IV) | EC50 ([1]; Table IV) | Structure (SMILES)
10 |  |  | 4.7 nM | 450 nM | CC(C)(C)NC(=O)[C@@H]1C[C@H](S(=O)(=O)c2ccccc2)CCN1C[C@@H](O)[C@H](Cc1ccccc1)NC(=O)[C@H](CC(N)=O)NC(=O)c1ccc2ccccc2n1 [Table IV, entry 22, N-tert-butyl-1-{2(R)-hydroxy-4-phenyl-3(S)-{{N-(2-quinolinylcarbonyl)asparaginyl}amino}butyl}-4(R)-(phenylsulfonyl)piperidine-2(S)-carboxamide]
11 |  |  | 3.1 nM | 90 nM | CC(C)[C@H](NC(=O)OCc1ccccc1)C(=O)N[C@@H](Cc1ccccc1)[C@H](O)CN1CC[C@@H](c2ccccc2)C[C@H]1C(=O)NC(C)(C)C [Table IV, entry 10, N-tert-butyl-1-{3(S)-{{N-(benzyloxycarbonyl)valyl}amino}-2(R)-hydroxy-4-phenylbutyl}-4(R)-phenylpiperidine-2(S)-carboxamide]
12 |  |  | 6.3 nM | 150 nM | CC(C)(C)NC(=O)[C@@H]1C[C@H](c2ccccc2)CCN1C[C@@H](O)[C@H](Cc1ccccc1)NC(=O)[C@H](CC(N)=O)NC(=O)OCc1ccccc1 [Table IV, entry 12]
13 |  |  | 1.8 nM | 56 nM | CC(C)[C@H](NC(=O)OCc1ccccc1)C(=O)N[C@@H](Cc1ccccc1)[C@H](O)CN1CC[C@@H](Oc2ccccn2)C[C@H]1C(=O)NC(C)(C)C [Table IV, entry 18]
14 |  |  |  | 800 nM | CC(C)(C)NC(=O)[C@@H]1C[C@H](Sc2ccccc2)CCN1C[C@@H](O)[C@H](Cc1ccccc1)NC(=O)OCc1ccccc1 [Table IV, entry 5, N-tert-butyl-1-{3(S)-(benzyloxycarbonylamino)-2(R)-hydroxy-4-phenylbutyl}-4(R)-(phenylthio)piperidine-2(S)-carboxamide]
